US10081614B2, “Bis(sulfonamide) derivatives and their use as mPGES inhibitors” (Acturum Real Estate AB, priority 2014, dated 2018)

Columns and labels:
[1] = tested on: mPGES-1-dependent PGE2 production in human blood; assay: Whole blood assay (LPS-stimulated human blood, PGE2 production); type: cell-based; conditions: 0.1 μg/ml LPS, 16 hours at 37° C., PGE2 by HTRF, read-out: hWBA
Description: The whole blood assay [described by Patrignani, P. et al, Journal of Pharmacology and Experimental Therapeutics, 1994, vol. 271, pp 1705-1712] was used as the whole cell assay for testing the compounds. Whole blood provides a protein and cell rich environment for the study of biochemical efficacy of anti-inflammatory compounds, such as prostaglandin synthase inhibitors. To study the inhibitory activities of these compounds, human blood was stimulated with lipopolysaccharide (LPS) for typically 16 hours to induce mPGES-1 expression, after which the concentration of produced PGE2 was measured by competitive-immuno assay (homogeneous time-resolved fluorescence, HTRF) as read out for effectiveness against mPGES-1-dependent PGE2 production.
Human blood collected from human volunteers in heparinized tubes was incubated with 100 μM acetyl salicylic acid, in order to inhibit the constitutively expressed cyclooxygenase (COX)-1/COX-2 enzymes, and then stimulated with 0.1 μg/ml LPS to induce the expression of enzymes along the COX-2 pathway, e.g. COX-2 and mPGES-1. 100 μL of this blood was added to the wells of a 384-well plate containing 1 μL DMSO solutions of compounds typically in the final concentration range 316 μM to 0.01 μM. Naproxen was used as reference compound. The mix was incubated at 37° C. for 16 hours. Plasma was harvested by centrifugation and stored at −70° C. until further analysis of PGE2 levels. For the calculations, the 0%-activity value was represented by blood treated with acetyl salicylic acid, LPS and the reference compound (1 mM Naproxen). The 100%-activity value was represented by blood treated with aspirin, LPS and DMSO. [Reference: Patrignani, P. et al, Journal of Pharmacology and Experimental Therapeutics, 1994, vol. 271, pp 1705-1712]. The PGE2 formed was quantified, after dilution in a weak potassium phosphate buffer (50 mM, pH 6.8) containing 0.2% BSA (w/v), by use of a commercial HTRF based kit (catalogue #62PG2PEC or #62P2APEC from Cisbio International). IC50 values were then determined using standard procedures.

human mPGES-1 = target: T1, human mPGES-1 (Homo sapiens, UniProt O14684); assay: Microsomal prostaglandin E synthase biochemical assay; conditions: microsomes containing human mPGES-1, PGH2 10.8 μM, GSH 2.5 mM, pH 6.8; average of at least n=2
T1 construct: host or cells: microsomes
T1 sequence (O14684 1-152): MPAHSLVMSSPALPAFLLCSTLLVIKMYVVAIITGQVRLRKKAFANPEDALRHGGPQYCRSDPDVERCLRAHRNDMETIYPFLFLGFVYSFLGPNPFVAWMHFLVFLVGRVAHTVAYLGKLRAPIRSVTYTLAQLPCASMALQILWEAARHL
Protocol: Compounds were tested as inhibitors of microsomal prostaglandin E synthase activity in microsomal prostaglandin E synthase assays and whole cell assays. These assays measure prostaglandin E2 (PGE2) synthesis, which is taken as a measure of prostaglandin E synthase activity. Microsomal prostaglandin E synthase biochemical assays used microsomal prostaglandin E synthase-1 in microsomal preparations. The source of the microsomes can be for example interleukin-1β-stimulated human A549 cells (which express human mPGES-1) or Sf9 cells transfected with plasmids encoding human mPGES-1 cDNA.
A solution of test compound was added to a diluted microsome preparation containing human mPGES-1 and pre-incubated for 15 minutes in potassium phosphate buffer pH 6.8 with cofactor glutathione (GSH). Corresponding solutions without test compound were used as positive controls, and corresponding solutions without test compound and without microsomes were used as negative controls. The enzymatic reaction was then started by addition of the substrate PGH2 in an organic solution (dry acetonitrile).
The typical reaction conditions of the enzymatic reaction were thus: Test compound: ranging from 60 μM to 0.002 μM, or zero in positive and negative controls; potassium phosphate buffer pH 6.8:50 mM; GSH: 2.5 mM; mPGES-1-containing microsomes: 2 μg/mL (sample and positive controls) or 0 μg/mL (negative control); PGH2: 10.8 μM; Acetonitrile: 7.7% (v/v); DMSO: 0.6% (v/v). The reaction was stopped after one minute by adding an acidic solution (pH 1.9) of ferric chloride and citrate (final concentrations 7 mM and 47 mM respectively), by which the PGH2 was sequestered (the PGH2 is reduced to mainly 12-hydroxy heptadecatrineoic acid (12-HHT) which is not detected by the subsequent PGE2 detection step). The resulting solution was then pH neutralized by addition of potassium phosphate buffer, prior to diluting an aliquot of the resulting solution in a weak potassium phosphate buffer (50 mM, pH 6.8) containing 0.2% BSA (w/v). [Adapted from Jacobsson et al., Proc. Natl. Acad. Sci. USA, 1999, vol. 96, pp. 7220-7225] The PGE2 formed was quantified by use of a commercial HTRF based kit (catalogue #62PG2PEC or #62P2APEC from Cisbio International). 100% activity was defined as the PGE2 production in positive controls subtracted by the PGE2 production in the negative controls. IC50 values were then determined using standard procedures.
The potency is expressed as IC50 and the value indicated is an average of at least n=2.

| IC50 [1] | IC50 (human mPGES-1) | SMILES |
| --- | --- | --- |
| 17.1 nM | < 2.5 nM | CC(C)(C)C#Cc1ccc(CCS(=O)(=O)Nc2ccccc2S(N)(=O)=O)c(OCC2CCOCC2)c1 [Example 15, 2-[({2-[4-(3,3-Dimethylbut-1-yn-1-yl)-2-(tetrahydro-2H-pyran-4-ylmethoxy)phenyl]ethyl}sulfonyl)amino]benzenesulfonamide] |
| 7.92 nM | < 2.2 nM | NS(=O)(=O)c1ccccc1NS(=O)(=O)CCc1ccc(C#CC2CC2)cc1OCC1CCOCC1 [Example 10, 2-[({2-[4-(Cyclopropylethynyl)-2-(tetrahydro-2H-pyran-4-ylmethoxy)phenyl]ethyl}sulfonyl)amino]benzenesulfonamide] |
| 0.987 nM | 2.1 nM | Cc1ccc(C#Cc2ccc(CCS(=O)(=O)Nc3ccccc3S(N)(=O)=O)c(OCC3CCOCC3)c2)cc1 [Example 14, 2-{[(2-{4-[(4-Methylphenyl)ethynyl]-2-(tetrahydro-2H-pyran-4-ylmethoxy)phenyl}ethyl)sulfonyl]amino}benzenesulfonamide] |
| 0.987 nM | 2.1 nM | NS(=O)(=O)c1ccccc1NS(=O)(=O)CCc1ccc(C#CC2CCCC2)cc1OCC1CCOCC1 [Example 11, 2-[({2-[4-(Cyclopentylethynyl)-2-(tetrahydro-2H-pyran-4-ylmethoxy)phenyl]ethyl}sulfonyl)amino]benzenesulfonamide] |
| 154 nM | 15 nM | Cc1ccc(CCS(=O)(=O)Nc2ccccc2S(N)(=O)=O)c(OCC2CCOCC2)c1 [Example 4, 2-[({2-[4-methyl-2-(tetrahydro-2H-pyran-4-ylmethoxy)phenyl]ethyl}sulfonyl)amino]benzenesulfonamide] |
| 11.5 nM | 2.7 nM | NS(=O)(=O)c1ccccc1NS(=O)(=O)CCc1ccc(Cl)cc1OCC1CCC(F)(F)CC1 [Example 6, 2-{[(2-{4-Chloro-2-[(4,4-difluorocyclohexyl)methoxy]phenyl}ethyl)sulfonyl]amino}benzenesulfonamide] |
| 29 nM | 5.6 nM | NS(=O)(=O)c1cc(CO)ccc1NS(=O)(=O)CCc1ccc(Cl)cc1OCC1CCOCC1 [Example 16, 2-[({2-[4-chloro-2-(tetrahydro-2H-pyran-4-ylmethoxy)phenyl]ethyl}sulfonyl)amino]-5-(hydroxymethyl)benzenesulfonamide] |
| 54.1 nM | 7.2 nM | Cc1ccc(CCS(=O)(=O)Nc2ccccc2S(N)(=O)=O)c(OCC2CCC(F)(F)CC2)c1 [Example 7, 2-{[(2-{2-[(4,4-Difluorocyclohexyl)methoxy]-4-methylphenyl}ethyl)sulfonyl]amino}benzenesulfonamide] |
| 26.6 nM | 4 nM | NS(=O)(=O)c1ccccc1NS(=O)(=O)CCc1ccc(C(F)(F)F)cc1OCC1CCOCC1 [Example 3, 2-[({2-[2-(Tetrahydro-2H-pyran-4-ylmethoxy)-4-(trifluoromethyl)phenyl]ethyl}sulfonyl)amino]benzenesulfonamide] |
| 1.85 nM | 3.4 nM | CC(C)C#Cc1ccc(CCS(=O)(=O)Nc2ccccc2S(N)(=O)=O)c(OCC2CCOCC2)c1 [Example 13, 2-[({2-[4-(3-methylbut-1-yn-1-yl)-2-(tetrahydro-2H-pyran-4-ylmethoxy)phenyl]ethyl}sulfonyl)amino]benzenesulfonamide] |
| 89.7 nM | 16 nM | NS(=O)(=O)c1ccccc1NS(=O)(=O)CCc1ccc(F)cc1OCC1CCOCC1 [Example 5, 2-[({2-[4-Fluoro-2-(tetrahydro-2H-pyran-4-ylmethoxy)phenyl]ethyl}sulfonyl)amino]benzenesulfonamide] |
| 24.9 nM | 3.5 nM | NS(=O)(=O)c1ccccc1NS(=O)(=O)CCc1ccc(Cl)cc1OCC1CCOCC1 [Example 2, 2-[({2-[4-Chloro-2-(tetrahydro-2H-pyran-4-ylmethoxy)phenyl]ethyl}sulfonyl)amino]benzenesulfonamide] |
| 1.84 nM | < 2.3 nM | NS(=O)(=O)c1ccccc1NS(=O)(=O)CCc1ccc(C#CC2CCC2)cc1OCC1CCOCC1 [Example 12, 2-[({2-[4-(cyclobutylethynyl)-2-(tetrahydro-2H-pyran-4-ylmethoxy)phenyl]ethyl}sulfonyl)amino]benzenesulfonamide] |
| 0.911 nM | 3.4 nM | NS(=O)(=O)c1ccccc1NS(=O)(=O)CCc1ccc(C#Cc2ccccc2)cc1OCC1CCOCC1 [Example 9, 2-[({2-[4-(Phenylethynyl)-2-(tetrahydro-2H-pyran-4-ylmethoxy)phenyl]ethyl}sulfonyl)amino]benzenesulfonamide] |
| 63.9 nM | 3.4 nM | NS(=O)(=O)c1ccccc1NS(=O)(=O)CCc1ccc(Br)cc1OCC1CCOCC1 [Example 1, 2-[({2-[4-Bromo-2-(tetrahydro-2H-pyran-4-ylmethoxy)phenyl]ethyl}sulfonyl)amino]benzenesulfonamide] |
| 214 nM | 19.5 nM | NS(=O)(=O)c1cc(CO)ccc1NS(=O)(=O)CCc1ccc(F)cc1OCC1CCOCC1 [Example 17, 2-[({2-[4-fluoro-2-(tetrahydro-2H-pyran-4-ylmethoxy)phenyl]ethyl}sulfonyl)amino]-5-(hydroxymethyl)benzenesulfonamide] |
| 149 nM | 7.6 nM | NS(=O)(=O)c1ccccc1NS(=O)(=O)CCc1ccc(F)cc1OCC1CCC(F)(F)CC1 [Example 8, 2-{[(2-{2-[(4,4-Difluorocyclohexyl)methoxy]-4-fluorophenyl}ethyl)sulfonyl]amino}benzenesulfonamide] |
